Assay results: paper PMC9033183 (RSC Advances, 2021)
Values joined by “and” are separate entries in the source; they are usually repeats but may differ in a detail not shown here. Identical values can stand only once. “Also recorded” adds a separate entry of the source.

Experiments:
[1] = target: aldose reductase (ALR2) (Bos taurus, UniProt P16116); test: Aldose reductase; type: biochemical, calf; conditions: for selectivity for ALR2 over ALR1, result in words: ALR2 IC50 compared with ALR1 percent inhibition
[2] = target: aldehyde reductase (ALR1) (Bos taurus, UniProt Q3ZCJ2); test: Aldehyde reductase; type: biochemical, calf; conditions: for IC50: ALR1 IC50(μM) ± SEM, enzyme partially purified from calf kidneys, triplicate
Sequence of aldehyde reductase (ALR1) (Q3ZCJ2 whole entry): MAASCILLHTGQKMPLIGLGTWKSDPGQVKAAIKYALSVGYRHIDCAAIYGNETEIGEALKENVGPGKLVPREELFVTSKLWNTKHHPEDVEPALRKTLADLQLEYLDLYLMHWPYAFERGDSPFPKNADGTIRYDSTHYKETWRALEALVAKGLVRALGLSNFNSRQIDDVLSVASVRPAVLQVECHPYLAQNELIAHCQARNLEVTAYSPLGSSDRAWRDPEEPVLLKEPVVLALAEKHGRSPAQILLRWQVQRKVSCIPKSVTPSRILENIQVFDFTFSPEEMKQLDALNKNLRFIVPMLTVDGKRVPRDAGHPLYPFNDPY

ALR1 inhibitory activity, result in words [2]	IC50 [2]	ALR2 inhibitory activity, result in words [1]	SMILES	selectivity for ALR2 over ALR1, result in words [1]
			COc1cccc(-n2c(-c3ccc([N+](=O)[O-])cc3)cs/c2=N/N=C\c2c[nH]c3ccccc23)c1 [Compound 8f, (Z)-2-((E)-((1H-indol-3-yl)methylene)hydrazono)-3-(3-methoxyphenyl)-4-(4-nitrophenyl)-2,3-dihydrothiazole]	selective ALR2 inhibitor
			CC(=N/N=c1\scc(-c2ccc(Cl)cc2)n1Cc1ccccc1)C12CC3CC(CC(C3)C1)C2 [Compound 6e, (2Z)-2-((1-(adamantan-1-yl)ethylidene)hydrazono)-3-benzyl-4-(4-chlorophenyl)-2,3-dihydrothiazole]	selective ALR2 inhibitors; also recorded: good inhibitory activity and selectively against ALR2
			C/C(=N/N=c1/scc(-c2ccc(Br)cc2)n1-c1ccccc1)c1ccc2c(c1)OCCO2 [Compound 7a, (Z)-4-(4-bromophenyl)-2-((E)-(1-(2,3-dihydrobenzo[b][1,4]dioxin-6-yl)ethylidene) hydrazono)-3-phenyl-2,3-dihydrothiazole]	selective ALR2 inhibitors
active inhibitors	3.29 ± 1.47 µM	active inhibitors	CC(=N/N=c1\scc(-c2ccc(Br)cc2)n1-c1ccccc1)C12CC3CC(CC(C3)C1)C2 [Compound 6a, (2Z)-2-((1-(adamantan-1-yl)ethylidene)hydrazono)-4-(4-bromophenyl)-3-phenyl-2,3-dihydrothiazole]	
			CC(=N/N=c1\scc(-c2ccc(Cl)cc2)n1-c1c(C)cccc1C)C12CC3CC(CC(C3)C1)C2 [Compound 6f, (2Z)-2-((1-(adamantan-1-yl)ethylidene)hydrazono)-4-(4-chlorophenyl)-3-(2,6-dimethylphenyl)-2,3-dihydrothiazole]	selective ALR2 inhibitors; also recorded: good inhibitory activity and selectively against ALR2
active inhibitors	4.93 ± 1.86 µM	active inhibitors	CC(=N/N=c1\scc(-c2ccc(Br)cc2)n1-c1cccc2ccccc12)C12CC3CC(CC(C3)C1)C2 [Compound 6b, (2Z)-2-((1-(adamantan-1-yl)ethylidene)hydrazono)-4-(4-bromophenyl)-3-(naphthalen-1-yl)-2,3-dihydrothiazole]	
active inhibitors	3.14 ± 0.41 µM	active inhibitors	C/C(=N/N=c1/scc(-c2ccc(Cl)cc2)n1-c1ccccc1)c1ccc2c(c1)OCCO2 [Compound 7g, (Z)-4-(4-chlorophenyl)-2-((E)-(1-(2,3-dihydrobenzo[b][1,4]dioxin-6-yl)ethylidene) hydrazono)-3-phenyl-2,3-dihydrothiazole]	
			C/C(=N/N=c1/scc(-c2ccc(Br)cc2)n1-c1c(C)cccc1C)c1ccc2c(c1)OCCO2 [Compound 7c, (Z)-4-(4-bromophenyl)-2-((E)-(1-(2,3-dihydrobenzo[b][1,4]dioxin-6-yl)ethylidene) hydrazono)-3-(2,6-dimethylphenyl)-2,3-dihydrothiazole]	selective ALR2 inhibitors
weak activity		weak activity	COc1cccc(-n2c(-c3ccc(Cl)cc3)cs/c2=N/N=C(/C)c2ccc3c(c2)NC(=O)CO3)c1 [Compound 5j, 6-((E)-1-((Z)-(4-(4-chlorophenyl)-3-(3-methoxyphenyl)thiazol-2(3H)-ylidene) hydrazono)ethyl)-2H-benzo[b][1,4]oxazin-3(4H)-one]	
weak activity		weak activity	COc1cccc(-n2c(-c3ccc(Br)cc3)cs/c2=N/N=C(/C)c2ccc3c(c2)NC(=O)CO3)c1 [Compound 5b, 6-((E)-1-((Z)-(4-(4-bromophenyl)-3-(3-methoxyphenyl)thiazol-2(3H)-ylidene) hydrazono)ethyl)-2H-benzo[b][1,4]oxazin-3(4H)-one]	
active inhibitors	2.94 ± 1.73 µM	active inhibitors	C/C(=N/N=c1/scc(-c2ccc(Cl)cc2)n1-c1ccc(F)cc1)c1ccc2c(c1)OCCO2 [Compound 7h, (Z)-4-(4-chlorophenyl)-2-((E)-(1-(2,3-dihydrobenzo[b][1,4]dioxin-6-yl)ethylidene) hydrazono)-3-(4-fluorophenyl)-2,3-dihydrothiazole]	
			CC(=N/N=c1\scc(-c2ccc(Br)cc2)n1-c1c(C)cccc1C)C12CC3CC(CC(C3)C1)C2 [Compound 6d, (2Z)-2-((1-(adamantan-1-yl)ethylidene)hydrazono)-4-(4-bromophenyl)-3-(2,6-dimethylphenyl)-2,3-dihydrothiazole]	selective ALR2 inhibitors; also recorded: good inhibitory activity and selectively against ALR2
active inhibitors	2.2 ± 0.92 µM	active inhibitors	C/C(=N/N=c1/scc(-c2ccc(Cl)cc2)n1Cc1ccccc1)c1ccc2c(c1)OCCO2 [Compound 7i, (Z)-3-benzyl-4-(4-chlorophenyl)-2-((E)-(1-(2,3-dihydrobenzo[b][1,4]dioxin-6-yl)ethylidene)hydrazono)-2,3-dihydrothiazole]	
			C/C(=N/N=c1/scc(-c2ccc(Br)cc2)n1Cc1ccccc1)c1ccc2c(c1)OCCO2 [Compound 7b, (Z)-3-benzyl-4-(4-bromophenyl)-2-((E)-(1-(2,3-dihydrobenzo[b][1,4]dioxin-6-yl)ethylidene)hydrazono)-2,3-dihydrothiazole]	selective ALR2 inhibitors; also recorded: excellent selectivity; also recorded: considerably selective activity against ARL2; also recorded: significantly selective
active inhibitors	2.94 ± 1.34 µM	active inhibitors	O=[N+]([O-])c1ccc(-c2cs/c(=N/N=C\c3c[nH]c4ccccc34)n2Cc2ccccc2)cc1 [Compound 8e, (Z)-2-((E)-((1H-indol-3-yl)methylene)hydrazono)-3-benzyl-4-(4-nitrophenyl)-2,3-dihydrothiazole]	
active inhibitors	4.07 ± 2.35 µM	active inhibitors	CC(=N/N=c1\scc(-c2ccc(Br)cc2)n1-c1ccccc1C)C12CC3CC(CC(C3)C1)C2 [Compound 6c, (2Z)-2-((1-(adamantan-1-yl)ethylidene)hydrazono)-4-(4-bromophenyl)-3-(o-tolyl)-2,3-dihydrothiazole]	
active inhibitors	3.13 µM and 3.24 µM	active inhibitors	COc1cccc(-n2c(-c3ccc([N+](=O)[O-])cc3)cs/c2=N/N=C(/C)c2ccc3c(c2)NC(=O)CO3)c1 [Compound 5f, 6-((E)-1-((Z)-(3-(3-methoxyphenyl)-4-(4-nitrophenyl)thiazol-2(3H)-ylidene) hydrazono)ethyl)-2H-benzo[b][1,4]oxazin-3(4H)-one]	
